Values quoted from earlier work, collected in PMC12671102 (Drug Design, Development and Therapy, 2025).

How the values were obtained:
subjects [1] = test system: subjects
subjects [2] = conditions: Phase II study
[3] = moderate fat meal

Row | SMILES | subjects with TEAEs (subjects [1]) [%] | nephrolithiasis (subjects [2]) | subjects with increases in serum creatinine (subjects [2]) [%] | effect of food on absorption [3]
1 | O=C(c1cc(Br)c(O)c(Br)c1)N1CCOc2ccncc21 [URC102] | 41 | – | – | –
2 | CC(C)(Sc1ccncc1-c1ccc(C#N)c2ccccc12)C(=O)O [verinurad] | – | no nephrolithiasis | 17.1 | delayed absorption
